Laboratory results reported in patent publication US8541167B2 (priority 2004, dated 2013).

Experiments:
[1] = system: ectromelia virus; set-up: species or system Mice; details: mouse, in vivo, ip, 12.5 mg/kg/day
[2] = system: ECTV; set-up: species or system A/NCr mice; details: mouse, in vivo
[3] = system: vaccinia, ectromelia or cowpox; details: mouse, in vivo; cited from earlier work

Nc1ccn(C[C@@H](CO)OCP(=O)(O)O)c(=O)n1 [Cidofovir]
effect of cidofovir during vaccination on level of protection from lethal disease [1]: did not affect the level of protection | protection from death afforded by vaccination in presence vs absence of CDV [2]: no difference observed | efficacy in protecting mice from a lethal dose [3]: high efficacy
